Literature values as cited in patent US20210353650A1 (priority 2020, published 2021).

Columns and labels:
[1] = nonhuman primates, daily administration of 10 mg/kg; EMA 2020
[2] = test system: Vero African green monkey kidney epithelial cells; settings: Vero cells used in the CPE assay; 2012 study

Q: With `CCC(CC)COC(=O)[C@H](C)N[P@](=O)(OC[C@H]1O[C@@](C#N)(c2ccc3c(N)ncnn23)[C@H](O)[C@@H]1O)Oc1ccccc1` [Remdesivir] as the molecule, how does the cytotoxic concentration (Vero E6 cells) read?
A: The cytotoxic concentration was over 100 mM.

Q: And the “intracellular levels of the triphosphate form” value [1]?
A: The value was “sustained intracellular levels”.

Q: What about the “cytotoxicity toward host cells” value [2] of the same molecule?
A: Its value is “without causing cytotoxicity”.
